Reference: patent US20110105623A1 (Biogenic Innovations, LLC, priority 2009, published 2011)
“And” between values parts separate entries of the source, which are not always exact repeats. Equal values may be shown once.

Key:
[1] = system: Candida albicans; test: USP <51> AET in cosmetic cream/composition; format: cell-based; settings: for AET microorganism count: 48 hrs-28 days; for Log Reduction from Initial Microorganism Inoculum: 14, 28 Days
[2] = system: normal flora found in the milks; test: Standard plate counts of non-probiotic microorganisms in Acidophilus milks; format: cell-based
[3] = system: Bifidobacterium bifidum; test: Growth in MRS broth fortified with MSM (anaerobic); format: cell-based; settings: for log higher than the 0% MSM control: 48 hours
Protocol: Each organism (Lactobacillus rhamnosus, Lactobacillus acidophilus, and Bifidobacterium bifidum) was grown in MRS bacterial growth medium (broth) and plated on MRS agar at different time intervals. Results are expressed in colony forming units per milliliter (cfu/mL).
The 0.1% and 0.04% test concentrations were prepared by making a 1:10 dilution of the 1% and 0.4% test solutions. Once each set of test media was plated for sterility, they were inoculated at a level of 100 μl of inoculum per 100 g or mLs of test broth (1:1000 inoculum dilutions) with each respective microorganism. All bacterial organisms were incubated at 35° C.+/−2° C. for the duration of the study.
All samples were plated on MRS agar at time 0, 12, 36, 48, 60 and 72 hours (+/−45 minutes). All preparations and plating were conducted at room temperature. All plating events were incubated at 35° C.+/−2° C. for at least 2 days or 3 days for Bifidobacterium. Test samples were plated in triplicate at each test date and the averages are reported.
Bifidobacterium bifidum, a common microbe used in probiotics, was also tested. All Bifidobacterium samples were incubated under anaerobic conditions.

[4] = system: Lactobacillus acidophilus ATCC #4356; test: Growth and recovery in simulated intestinal tract environment
Protocol: The pH of the simulated intestinal fluid was 6.8. The microorganisms analyzed included Lactobacillus acidophilus ATCC #4356:
For the Lactobacillus acidophilus, bottled milk was used as the product. One milliliter of a 9 log solution of organism was placed into a 99 mL of bottled milk and mixed by hand shaking. […] The gastric acid was pre-warmed to 35° C. and kept at 35° C. for the duration of the 20 minutes. At the end of the 20 minute period, 10 mL of the simulated gastric acid, Lactobacillus acidophilus and milk mixture was placed into 90 mL of simulated intestinal fluid. The simulated intestinal fluid was pre-warmed to 35° C. and kept at 35° C. during the duration of the study.

[5] = system: Escherichia coli (ATCC strain 8739); test: Growth profile in sterile/non-sterile MSM media, streaked on MacConkey agar; format: cell-based; settings: 5-16% MSM
Protocol: Tubes were incubated at 25° C.

[6] = system: Candida albicans; test: USP AET, MSM in TSB; format: cell-based; set-up: key to AET microorganism count: Colonies too numerous to count (TNTC); settings: for Log Reduction from Initial Microorganism Inoculum: 1:10 dilution of MSM, 14, 28 Days; for AET microorganism count: 48 hrs
Text: (§1) Compounds or formulated products having antimicrobial activity may be evaluated with the United States Pharmacopeia (USP) Antimicrobial Effectiveness Test (AET). The AET involves the addition of specified microorganisms (Candida albicans, Aspergillus niger, Escherichia coli, Pseudomonas aeruginosa and Staphylococcus aureus) directly to a test product at relatively high concentrations to simulate contamination. The product is held for one month, with weekly analysis of microorganism levels. Depending on the route of administration of a product, satisfaction of the AET generally requires a 1 to 3 log reduction in bacteria from initial levels, which should occur in one to two weeks, with no further increase in bacteria after two weeks. For yeast and mold, no increase from the initial inoculums level is permitted.
(§2) Inoculations were made using Candida albicans, Aspergillus niger, Escherichia coli, Pseudomonas aeruginosa and Staphylococcus aureus. Tryptic soy broth (TSB) was used as the culturing media. […] The inoculated media was held for one month, during which time the added microorganisms were enumerated weekly to determine if they were growing, dying off, or remaining near the initial inoculation level. Data points were measured in triplicate at 48 hours, 3, 5, 14, 20, 28, and 30 days. The acceptance criteria for antimicrobial effectiveness are described in detail in the USP, herein incorporated by reference.

[7] = system: Staphylococcus aureus; test: USP AET, MSM in TSB; format: cell-based; set-up: key to AET microorganism count: Colonies too numerous to count (TNTC); settings: for Log Reduction from Initial Microorganism Inoculum: 1:10 dilution of MSM, 14, 28 Days; for AET microorganism count: 48 hrs
Text: as §1, §2

Methylsulfonylmethane [MSM]
AET microorganism count ([1]; 10% MSM in Preservative Free Cosmetic Composition #2, 48 hours after inoculation): 9.0 × 10^2 | AET microorganism count ([1]; 10% MSM in Preservative Free Cosmetic Composition #2, 7 days after inoculation): <10 | AET microorganism count ([1]; 10% MSM in cosmetic cream without preservative): <10 | Log Reduction from Initial Microorganism Inoculum ([1]; 10% MSM in preservative-free jojoba cream): 4.3 log | Log Reduction from Initial Microorganism Inoculum ([1]; 10% MSM, Composition #1): 5.3 log | Log Reduction from Initial Microorganism Inoculum ([1]; 10% MSM, Composition #2): 5.3 log | growth of normal flora (standard plate counts) ([2]; 5.0% MSM, throughout the study): did not allow any significant growth | Growth of non-probiotic microorganisms in Acidophilus Milk ([2]; A/B milk […] MSM, Day 0): 370 cfu per mL | Growth of non-probiotic microorganisms in Acidophilus Milk ([2]; A/B milk […] MSM, Day 3): 480 cfu per mL | Growth of non-probiotic microorganisms in Acidophilus Milk ([2]; A/B milk […] MSM, Day 7): 570 cfu per mL | Growth of non-probiotic microorganisms in Acidophilus Milk ([2]; A/B milk […] MSM, Day 14): 1460 cfu per mL | Growth of non-probiotic microorganisms in Acidophilus Milk ([2]; A/B milk […] MSM, Day 21): 3500 cfu per mL | Growth of non-probiotic microorganisms in Acidophilus Milk ([2]; A/B milk […] MSM, Day 28): 110000 cfu per mL | Growth of non-probiotic microorganisms in Acidophilus Milk ([2]; Acidophilus milk 0.50% MSM, Day 0, duplicates): 20 cfu per mL and 30 cfu per mL | Growth of non-probiotic microorganisms in Acidophilus Milk ([2]; Acidophilus milk 0.50% MSM, Day 3, duplicates): 10 cfu per mL | Growth of non-probiotic microorganisms in Acidophilus Milk ([2]; Acidophilus milk 0.50% MSM, Day 7, duplicates): 10 cfu per mL | Growth of non-probiotic microorganisms in Acidophilus Milk ([2]; Acidophilus milk 0.50% MSM, Day 14, duplicates): 20 cfu per mL | Growth of non-probiotic microorganisms in Acidophilus Milk ([2]; Acidophilus milk 0.50% MSM, Day 21, duplicates): 20 cfu per mL and 40 cfu per mL | Growth of non-probiotic microorganisms in Acidophilus Milk ([2]; Acidophilus milk 5% MSM, Day 0, duplicates): 10 cfu per mL and 20 cfu per mL | Growth of non-probiotic microorganisms in Acidophilus Milk ([2]; Acidophilus milk 5% MSM, Day 3, duplicates): 10 cfu per mL | Growth of non-probiotic microorganisms in Acidophilus Milk ([2]; Acidophilus milk 5% MSM, Day 7, duplicates): 10 cfu per mL and 20 cfu per mL | Growth of non-probiotic microorganisms in Acidophilus Milk ([2]; Acidophilus milk 5% MSM, Day 14, duplicates): 20 cfu per mL and 10 cfu per mL | Growth of non-probiotic microorganisms in Acidophilus Milk ([2]; Acidophilus milk 5% MSM, Day 21, duplicates): 20 cfu per mL and 10 cfu per mL | Growth of non-probiotic microorganisms in Acidophilus Milk ([2]; Acidophilus milk 5% MSM, Day 28, duplicates): 10 cfu per mL | Growth of non-probiotic microorganisms in Acidophilus Milk ([2]; Acidophilus milk […] MSM, Day 0, duplicates): 10 cfu per mL | Growth of non-probiotic microorganisms in Acidophilus Milk ([2]; Acidophilus milk […] MSM, Day 14, duplicates): <10 cfu per mL | log increases of Bifidobacterium ([3]; 0.2% MSM): 2 log | log higher than the 0% MSM control ([3]; 0.04% MSM): 1 log | log higher than the 0% MSM control ([3]; 0.2% MSM): 1 log | Log Growth of Lactobacillus acidophilus ([4]; 5.0% MSM, 20 min Gastric): <1.00 logs | Log Growth of Lactobacillus acidophilus ([4]; 5.0% MSM, Hour 3, simulated intestinal fluid): 1.62 logs | Log Growth of Lactobacillus acidophilus ([4]; 5.0% MSM, Hour 8, simulated intestinal fluid): 2.33 logs | Log Growth of Lactobacillus acidophilus ([4]; 5.0% MSM, Hour 24, simulated intestinal fluid): 6.39 logs | Log Growth of Lactobacillus acidophilus ([4]; 5.0% MSM, Hour 30, simulated intestinal fluid): 6.63 logs | Log Growth of Lactobacillus acidophilus ([4]; 5.0% MSM, Hour 36, simulated intestinal fluid): 8.65 logs | Log Growth of Lactobacillus acidophilus ([4]; 5.0% MSM, Hour 48, simulated intestinal fluid): 10.17 logs | Log Growth of Lactobacillus acidophilus ([4]; 5.0% MSM, Hour 54, simulated intestinal fluid): 13.33 logs | Log Growth of Lactobacillus acidophilus ([4]; 5.0% MSM, Hour 60, simulated intestinal fluid): 12.76 logs | Log Growth of Lactobacillus acidophilus ([4]; 5.0% MSM, Hour 72, simulated intestinal fluid): 12.78 logs | Log Growth of Lactobacillus acidophilus ([4]; 5.0% MSM, Starting Inoculum): 7.02 logs | log growth ([4]; 5.0% MSM, hour 36): 8.65 logs | increase in growth ([4]; 5.0% MSM, period after hour 48): 3.16 logs | Log Growth of Lactobacillus acidophilus ([4]; […] MSM, 20 min Gastric): <1.00 logs | Log Growth of Lactobacillus acidophilus ([4]; […] MSM, Starting Inoculum): 6.86 logs | increase in growth ([4]; […] MSM, hour 36 to 48): 3.65 logs | Growth profile of E. coli ([5]; 24 hours, NS (sterile saline + non-sterile MSM), 8% MSM): Heavy | Growth profile of E. coli ([5]; 24 hours, NS (sterile saline + non-sterile MSM), 12% MSM): Moderate | Growth profile of E. coli ([5]; 24 hours, NSA (saline + MSM, then sterilized), 8% MSM): Heavy | Growth profile of E. coli ([5]; 24 hours, NSA (saline + MSM, then sterilized), 12% MSM): Moderate | Growth profile of E. coli ([5]; 24 hours, TSB (sterile TSB + non-sterile MSM), 8% MSM): Heavy | Growth profile of E. coli ([5]; 24 hours, TSB (sterile TSB + non-sterile MSM), 10% MSM): Moderate | Growth profile of E. coli ([5]; 24 hours, TSB (sterile TSB + non-sterile MSM), 11% MSM): Few | Growth profile of E. coli ([5]; 24 hours, TSBA (TSB + MSM, then sterilized), 8% MSM): Heavy | Growth profile of E. coli ([5]; 24 hours, TSBA (TSB + MSM, then sterilized), 10% MSM): Moderate | Growth profile of E. coli ([5]; 24 hours, TSBA (TSB + MSM, then sterilized), 11% MSM): Few | Growth profile of E. coli ([5]; 48 hours, NS, 8% MSM): Heavy | Growth profile of E. coli ([5]; 48 hours, NS, 12% MSM): Moderate | Growth profile of E. coli ([5]; 48 hours, NSA, 8% MSM): Heavy | Growth profile of E. coli ([5]; 48 hours, NSA, 12% MSM): Moderate | Growth profile of E. coli ([5]; 48 hours, TSB, 8% MSM): Heavy | Growth profile of E. coli ([5]; 48 hours, TSB, 11% MSM): Moderate | Growth profile of E. coli ([5]; 48 hours, TSB, 12% MSM): Few | Growth profile of E. coli ([5]; 48 hours, TSBA, 8% MSM): Heavy | Growth profile of E. coli ([5]; 48 hours, TSBA, 11% MSM): Moderate | Growth profile of E. coli ([5]; 48 hours, TSBA, 12% MSM): Few | Growth profile of E. coli ([5]; 72 hours, NS, 8% MSM): Heavy | Growth profile of E. coli ([5]; 72 hours, NS, 12% MSM): Moderate | Growth profile of E. coli ([5]; 72 hours, NSA, 8% MSM): Heavy | Growth profile of E. coli ([5]; 72 hours, NSA, 12% MSM): Moderate | Growth profile of E. coli ([5]; 72 hours, TSB, 8% MSM): Heavy | Growth profile of E. coli ([5]; 72 hours, TSB, 11% MSM): Moderate | Growth profile of E. coli ([5]; 72 hours, TSB, 12% MSM): Few | Growth profile of E. coli ([5]; 72 hours, TSBA, 8% MSM): Heavy | Growth profile of E. coli ([5]; 72 hours, TSBA, 11% MSM): Moderate | Growth profile of E. coli ([5]; 72 hours, TSBA, 12% MSM): Few | Log Reduction from Initial Microorganism Inoculum ([6]; 14 days after inoculation): 4.2 log | Log Reduction from Initial Microorganism Inoculum ([6]; 28 days after inoculation): 4.4 log | AET microorganism count ([6]; 1:100 dilution of MSM): TNTC | AET microorganism count ([6]; 1:1000 dilution of MSM): TNTC | Log Reduction from Initial Microorganism Inoculum ([7]; 14 days after inoculation): 4.5 log | Log Reduction from Initial Microorganism Inoculum ([7]; 28 days after inoculation): 4.7 log | AET microorganism count ([7]; 1:100 dilution of MSM): TNTC | AET microorganism count ([7]; 1:1000 dilution of MSM): TNTC
